Data: ChEMBL document CHEMBL1125619, “Effect of fluorine substitution on the adrenergic properties of 3-(tert-butylamino)-1-(3,4-dihydroxyphenoxy)-2-propanol” (J Med Chem, 1991)

What was measured:
[1] = target: Beta-2 adrenergic receptor (Cavia porcellus, UniProt Q8K4Z4); experiment: Agonistic activity (beta2- adrenergic) for the percent maximal relaxation of isolated guinea pig trachea; type: functional, tissue-based
Adrenergic receptor beta = Adrenergic receptor beta (Rattus norvegicus, UniProt P18090+P10608+P26255); experiment: Beta adrenergic receptor agonistic activity for the stimulation of accumulation of cyclic AMP in cultured C6 glioma cells; type: functional, cell-based
[2] = target: Beta-1 adrenergic receptor (Rattus norvegicus, UniProt P18090)
Description: Compound was evaluated for the inhibition of binding of [3H]dihydroalprenolol from beta-1 adrenergic receptor of rat cerebral cortical membranes

[3] = target: Beta-1 adrenergic receptor (Cavia porcellus, UniProt B0FL73); experiment: Agonistic activity (beta-1 adrenergic receptor) for the percent maximal increase in contraction rate of isolated guinea pig atria; type: functional
Beta-1 adrenergic receptor (Cavia porcellus, UniProt B0FL73), sequence (B0FL73 whole entry): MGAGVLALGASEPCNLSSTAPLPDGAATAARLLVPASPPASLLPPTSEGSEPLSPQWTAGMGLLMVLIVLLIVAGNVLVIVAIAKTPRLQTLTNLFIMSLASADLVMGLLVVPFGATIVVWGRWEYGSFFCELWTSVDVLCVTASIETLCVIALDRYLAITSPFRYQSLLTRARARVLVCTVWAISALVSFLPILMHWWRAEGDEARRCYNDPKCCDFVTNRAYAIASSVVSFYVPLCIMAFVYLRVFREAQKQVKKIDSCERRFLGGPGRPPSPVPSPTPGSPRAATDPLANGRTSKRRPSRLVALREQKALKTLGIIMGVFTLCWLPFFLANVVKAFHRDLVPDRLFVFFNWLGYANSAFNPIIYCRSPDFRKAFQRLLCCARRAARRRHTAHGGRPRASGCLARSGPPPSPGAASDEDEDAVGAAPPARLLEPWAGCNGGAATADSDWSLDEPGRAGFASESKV

Beta-2 adrenergic receptor, sequence (Q8K4Z4 whole entry): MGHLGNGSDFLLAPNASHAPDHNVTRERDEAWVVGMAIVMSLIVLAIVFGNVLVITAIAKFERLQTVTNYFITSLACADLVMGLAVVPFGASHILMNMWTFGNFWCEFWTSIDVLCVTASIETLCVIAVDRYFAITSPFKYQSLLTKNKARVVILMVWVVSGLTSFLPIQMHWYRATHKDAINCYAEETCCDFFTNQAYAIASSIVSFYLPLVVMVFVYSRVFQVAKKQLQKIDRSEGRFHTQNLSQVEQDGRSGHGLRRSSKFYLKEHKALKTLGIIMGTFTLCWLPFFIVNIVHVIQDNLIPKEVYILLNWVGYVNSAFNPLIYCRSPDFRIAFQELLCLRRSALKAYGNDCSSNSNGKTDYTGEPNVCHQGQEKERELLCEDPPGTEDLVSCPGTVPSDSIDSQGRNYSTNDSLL
Beta-1 adrenergic receptor (Rattus norvegicus, UniProt P18090), sequence (P18090 whole entry): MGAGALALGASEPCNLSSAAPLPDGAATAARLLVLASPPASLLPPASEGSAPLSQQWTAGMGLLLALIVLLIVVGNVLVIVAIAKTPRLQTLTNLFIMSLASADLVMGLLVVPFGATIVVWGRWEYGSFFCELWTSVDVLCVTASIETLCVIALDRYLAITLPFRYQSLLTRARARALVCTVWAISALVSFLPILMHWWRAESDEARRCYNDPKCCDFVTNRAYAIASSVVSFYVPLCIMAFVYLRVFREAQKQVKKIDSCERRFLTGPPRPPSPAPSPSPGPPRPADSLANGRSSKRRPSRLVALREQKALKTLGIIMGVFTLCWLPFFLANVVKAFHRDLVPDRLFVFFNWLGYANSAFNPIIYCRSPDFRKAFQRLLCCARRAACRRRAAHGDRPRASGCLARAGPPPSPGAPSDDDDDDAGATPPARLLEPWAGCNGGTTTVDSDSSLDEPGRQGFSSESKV

EC50 [1] [nM]	EC50 (Adrenergic receptor beta)	Ki [2] [nM]	EC50 [3] [nM]	SMILES
38	9.2 nM	60	8.6	CC(C)(C)NCC(O)COc1ccc(O)c(O)c1F (stereo not drawn)
> 10000	>> 10000 nM	87000	175	CC(C)(C)NCC(O)COc1cc(O)c(O)cc1F (stereo not drawn)
130	8.2 nM	120	4.7	CC(C)(C)NCC(O)COc1ccc(O)c(O)c1 (stereo not drawn)
58	–	–	–	CC(C)NCC(O)c1ccc(O)c(O)c1 (stereo not drawn) [ISOPROTERENOL]
